The source of these data is US7560476B2, “Microbicidal composition” (Rohm and Haas Company, priority 2003, dated 2009).

Like-named read-outs stand apart in the source and are kept apart here.

One test relates to A. niger 16404. Kind of test: Synergy test, microtiter plate high resolution MIC assay, PDB medium. It is filed as cell-based, Aspergillus niger. The procedure:
(§1) Synergism was determined by an industrially accepted method described by Kull, F. C.; Eisman, P. C.; Sylwestrowicz, H. D. and Mayer, R. L., in Applied Microbiology 9:538-541 (1961), using the ratio determined by the formula: Qa/QA+Qb/QB=Synergy Index (“SI”) wherein: • QA=concentration of compound A (first component) in ppm, acting alone, which produced an end point (MIC of Compound A). • Qa=concentration of compound A in ppm, in the mixture, which produced an end point. • QB=concentration of compound B (second component) in ppm, acting alone, which produced an end point (MIC of Compound B). • Qb=concentration of compound B in ppm, in the mixture, which produced an end point.
(§2) When the sum of Qa/QA and Qb/QB is greater than one, antagonism is indicated. […] The lower the SI, the greater the synergy shown by that particular mixture. The minimum inhibitory concentration (MIC) of a microbicide is the lowest concentration tested under a specific set of conditions that prevents the growth of added microorganisms.
(§3) Synergy tests were conducted using standard microtiter plate assays with media designed for optimal growth of the test microorganism. Minimal salt medium supplemented with 0.2% glucose and 0.1% yeast extract (M9GY medium) was used for testing bacteria; Potato Dextrose Broth (PDB medium) was used for testing yeast and mold. In this method, a wide range of combinations of microbicides was tested by conducting high resolution MIC assays in the presence of various concentrations of MI. High resolution MICs were determined by adding varying amounts of microbicide to one column of a microtitre plate and doing subsequent […] dilutions using an automated liquid handling system to obtain a series of endpoints ranging from 2 ppm to 10,000 ppm active ingredient. The synergy of the combinations of the present invention was determined against two bacteria, Staphylococcus aureus (S. aureus—ATCC #6538) or Pseudomonas aeruginosa (P. aeruginosa—ATCC #15442), a yeast, Candida albicans (C. albicans—ATCC 10231), and a mold, Aspergillus niger (A. niger—ATCC 16404). […]

The next test deals with S. aureus 6538. Nature of the test: Synergy test, microtiter plate high resolution MIC assay, M9GY medium. Format: cell-based, Staphylococcus aureus. The procedure: as §1, §2, §3
A further test concerns C. albicans 10231. Kind of test: Synergy test, microtiter plate high resolution MIC assay, PDB medium. It is filed as cell-based, Candida albicans. The procedure: as §1, §2, §3
Another test deals with P. aeruginosa 9027. Nature of the test: Synergy test, microtiter plate high resolution MIC assay, M9GY medium. It is filed as cell-based, Pseudomonas aeruginosa.
Test [1] concerns microorganisms isolated from contaminated paint. Nature of the test: Testing of synergistic combinations in paint (repeated inoculation). Format: cell-based. Particulars: paint pH 8.5-8.8. The procedure: A paint formulation having a pH of 8.5-8.8 was prepared from an acrylic binder, cellulosic thickener, kaolin, additives for formulation, and water. Fifty grams of the paint samples are inoculated repeatedly with microorganisms isolated from contaminated paint, with rising concentrations of inoculum. This treatment is carried out once a week. Six days after each inoculation, the surviving microorganisms are evaluated in each sample by applying onto nutrient media. These streak-outs are assessed after an incubation time of up to seven days (at 27±2° C. and 85-95% relative atmospheric humidity). An unpreserve sample of the system to be examined is used to check the susceptibility to the growth of microorganisms. Five inoculation cycles are carried out, thus leading to a test duration of six weeks. The rating scale for evaluation microbial growth is as follows: […]

For the molecule `CNC(=O)c1ccccc1SSc1ccccc1C(=O)NC` [DTBMA, 2,2′-dithiobis(N-methylbenzamide)], the MIC in the test on A. niger 16404 (Aspergillus niger, 16404, PDB, 72 hours, read-out: QDTBMA (MIC of DTBMA acting alone)) is 1500 µg/mL; in the test with S. aureus 6538 (Staphylococcus aureus, 6538, M9GY, 24 hours, read-out: QDTBMA (MIC of DTBMA acting alone)), 40 µg/mL; in the test on C. albicans 10231 (Candida albicans, 10231, PDB, 48 hours, read-out: QDTBMA (MIC of DTBMA acting alone)) it was 40 µg/mL; in the test with P. aeruginosa 9027 (Pseudomonas aeruginosa, 9027, M9GY, 72 hours, read-out: QDTBMA (MIC of DTBMA acting alone)), 1000 µg/mL. In addition, the “growth rating >5 inoc.” value stood at 3 in test [1] (0.0 ppm MI, 152.0 ppm DTBMA (0:100)) and 3 in test [1] (0.0 ppm MI, 228.0 ppm DTBMA (0:100)).
Regarding `Cn1sc2ccccc2c1=O` [MBI, 2-methylbenzisothiazolone], the MIC with A. niger 16404 (Aspergillus niger, 16404, PDB, 72 hours, read-out: QMBI (MIC of MBI acting alone)) was determined as 60 µg/mL; in the test on S. aureus 6538 (Staphylococcus aureus, 6538, M9GY, 24 hours, read-out: QMBI (MIC of MBI acting alone)) it was 8 µg/mL; in the test with C. albicans 10231 (Candida albicans, 10231, PDB, 48 hours, read-out: QMBI (MIC of MBI acting alone)), 8 µg/mL; with P. aeruginosa 9027 (Pseudomonas aeruginosa, 9027, M9GY, 72 hours, read-out: QMBI (MIC of MBI acting alone)), 200 µg/mL.
Turning to `Cn1sccc1=O` [MI, 2-methyl-4-isothiazolin-3-one], the MIC is 400 µg/mL in the test with A. niger 16404 (Aspergillus niger, 16404, 72 h, read-out: QMI (MIC of MI acting alone)); 60 µg/mL with S. aureus 6538 (Staphylococcus aureus, 6538, 24 h, read-out: QMI (MIC of MI acting alone)); 175 µg/mL in the test with C. albicans 10231 (Candida albicans, 10231, 48 h, read-out: QMI (MIC of MI acting alone)); 25 µg/mL in the test with P. aeruginosa 9027 (Pseudomonas aeruginosa, 9027, 72 h, read-out: QMI (MIC of MI acting alone)). For the same molecule, the “growth rating >5 inoc.” value in test [1] (150.0 ppm MI, 0.0 ppm DTBMA (100:0)) is 2/1.

As usually defined, the MIC is the smallest concentration in the dilution series that meets the test's criterion for growth inhibition.
